# Measured values: paper PMC10591454 (European journal of medicinal chemistry, 2021)
# Like-named read-outs stand apart in the source and are kept apart here.
# Legend:
# HCV genotype 1b = conditions: read-out: GT1b EC50; HCV NS5A inhibitors; cited from earlier work
# HCV genotype 1a = conditions: read-out: GT1a EC50; HCV NS5A inhibitors; cited from earlier work
# CYP3A4 = conditions: cited from earlier work
# HBV [1] = assay: HBV replication inhibition assay; type: cell-based, HBV genotype D; conditions: for anti-HBV activity in words: initial screening, SAR discussion; for activity at 10 µM: Hepatitis B virus, HepDES19, 72 h
# [2] = tested on: HBV DNA, HBsAg and pregenomic RNA; conditions: after 28 days of treatment with GLS4; cited from earlier work
# HBV [3] = conditions: effective concentration 90%; cited from earlier work
smiles,measurement,setting,value
COC(=O)N[C@H](C(=O)N1CC2(CC2)C[C@H]1c1nc(-c2ccc3c(c2)C(F)(F)c2cc(-c4ccc5[nH]c([C@@H]6[C@H]7CC[C@H](C7)N6C(=O)[C@@H](NC(=O)OC)C(C)C)nc5c4)ccc2-3)c[nH]1)C(C)C [Ledipasvir],EC50,HCV genotype 1b,0.004 nM
same,EC50,HCV genotype 1a,0.031 nM
C[C@@H](OC[C@@]1(c2ccccc2)CC[C@]2(CCC(=O)N2)CN1)c1cc(C(F)(F)F)cc(C(F)(F)F)c1 [Rolapitant],CYP3A4 inhibition in words,CYP3A4,no inhibitory effect
"CCOC(=O)C1=C(CN2CCC3(CCNC3)CC2)NC(c2nccs2)=NC1c1ccc(F)cc1Br (stereo not drawn) [Compound 5e, ethyl 6-((2,8-diazaspiro[4.5]decan-8-yl)methyl)-4-(2-bromo-4-fluorophenyl)-2-(thiazol-2-yl)-1,4-dihydropyrimidine-5-carboxylate]",anti-HBV activity in words,HBV [1],inactive
"CCOC(=O)C1=C(CN2CCC3(CCNC3)C2)NC(c2nccs2)=NC1c1ccc(F)cc1Br (stereo not drawn) [Compound 5i, ethyl 6-((2,7-diazaspiro[4.4]nonan-2-yl)methyl)-4-(2-bromo-4-fluorophenyl)-2-(thiazol-2-yl)-1,4-dihydropyrimidine-5-carboxylate]",anti-HBV activity in words,HBV [1],inactive or less potent
C[C@@H](O[C@H]1OCCN(Cc2n[nH]c(=O)[nH]2)[C@H]1c1ccc(F)cc1)c1cc(C(F)(F)F)cc(C(F)(F)F)c1 [Aprepitant],CYP3A4 inhibition in words,CYP3A4,moderate CYP3A4 inhibitor
"CCOC(=O)C1=C(CN2CCC3(CCNC3)C2=O)NC(c2nccs2)=NC1c1ccc(F)cc1Br (stereo not drawn) [Compound 5b, ethyl 4-(2-bromo-4-fluorophenyl)-6-((1-oxo-2,7-diazaspiro[4.4]nonan-2-yl)methyl)-2-(thiazol-2-yl)-1,4-dihydropyrimidine-5-carboxylate]",anti-HBV activity in words,HBV [1],inactive
"CCOC(=O)C1=C(CN2CCOCC2)NC(c2nccs2)=N[C@H]1c1ccc(F)cc1Br [GLS4, Ethyl4-(2-bromo-4-fluorophenyl)-6-(morpholinomethyl)-2-(thiazol-2-yl)-1,4-dihydropyrimidine-5-carboxylate]","HBV DNA, HBsAg and pregenomic RNA in patients",[2],strong downward trend
same,EC90,HBV [3],0.0557 µg/mL
"Nc1ccn([C@@H]2CS[C@H](CO)O2)c(=O)n1 [Compound 3TC, lamivudine]",activity at 10 µM,HBV [1]; read-out: Minus DNA (%) (10μM),54.6%
same,activity at 10 µM,HBV [1]; read-out: Plus DNA (%) (10μM),16.2%
"CCOC(=O)C1=C(CN2CC3(CCNC3)CC2=O)NC(c2nccs2)=NC1c1ccc(F)cc1Br (stereo not drawn) [Compound 5c, ethyl 4-(2-bromo-4-fluorophenyl)-6-((3-oxo-2,7-diazaspiro[4.4]nonan-2-yl)methyl)-2-(thiazol-2-yl)-1,4-dihydropyrimidine-5-carboxylate]",anti-HBV activity in words,HBV [1],inactive
